Test [1] concerns Pseudomonas aeruginosa UI-18: Wild-type (PA-7). In words: MIC determination (CLSI), strain PA-7. The format is cell-based. Particulars: strain PA-7; unit assumed. The method, boiled down:
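MIC determined by broth dilution per CLSI M7-A7 guidelines with M100-S18 interpretive standards. Test organism: wild-type Pseudomonas aeruginosa UI-18, designated PA-7.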

The subject of test [2] is Escherichia coli EC-1: VOGEL, mouse virulent. As to the kind of experiment: MIC determination (CLSI), strain EC-1. The format is cell-based. Particulars: strain EC-1; unit assumed. The method, boiled down:
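The mouse-virulent VOGEL isolate of E. coli, EC-1, served as test organism. Minimum inhibitory concentration was measured by CLSI dilution methodology (M7-A7; M100-S18 standards).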

In turn, `CC(CCn1ccc(-c2ccc(C#N)c(F)c2)cc1=O)(C(=O)NO)S(C)(=O)=O` (stereo not shown) [Example 207, 4-[4-(4-cyano-3-fluorophenyl)-2-oxopyridin-1(2H)-yl]-N-hydroxy-2-methyl-2-(methylsulfonyl)butanamide] came in with a PA-7 (MIC) in test [1] of 16 µg/mL. In test [2], this compound had an EC-1 (MIC) of 16 µg/mL.
`COc1cc(-c2ccn(CCC(C)(C(=O)NO)S(C)(=O)=O)c(=O)c2)ccc1F` (stereo not shown) [Example 208, 4-[4-(4-fluoro-3-methoxyphenyl)-2-oxopyridin-1(2H)-yl]-N-hydroxy-2-methyl-2-(methylsulfonyl)butanamide] registered a PA-7 (MIC) in test [1] of 16 µg/mL. Moreover, the EC-1 (MIC) in test [2] came to 32 µg/mL.
In the same order, the values of `Cc1cc(-c2ccn(CCC(C)(C(=O)NO)S(C)(=O)=O)c(=O)c2)ccn1` (stereo not shown) [Example 209, N-hydroxy-2-methyl-4-(2′-methyl-2-oxo-4,4′-bipyridin-1(2H)-yl)-2-(methylsulfonyl)butanamide] are 32 µg/mL and 64 µg/mL.
In the same order, the values of `CC(CCn1ccc(-c2cccc(O)c2)cc1=O)(C(=O)NO)S(C)(=O)=O` (stereo not shown) [Example 210, N-hydroxy-4-[4-(3-hydroxyphenyl)-2-oxopyridin-1(2H)-yl]-2-methyl-2-(methylsulfonyl)butanamide] are greater than 64 µg/mL and greater than 64 µg/mL.
For `CC(C)(C)NC(=O)c1cc(-c2ccn(CCC(C)(C(=O)NO)S(C)(=O)=O)c(=O)c2)ccc1F` (stereo not shown) [Example 211, N-tert-butyl-2-fluoro-5-{1-[4-(hydroxyamino)-3-methyl-3-(methylsulfonyl)-4-oxobutyl]-2-oxo-1,2-dihydropyridin-4-yl}benzamide], in that order: greater than 64 µg/mL and 64 µg/mL.
Compound `COc1cc(-c2ccn(CCC(C)(C(=O)NO)S(C)(=O)=O)c(=O)c2)cc(OC)c1OC` (stereo not shown) [Example 212, N-hydroxy-2-methyl-2-(methylsulfonyl)-4-[2-oxo-4-(3,4,5-trimethoxyphenyl)pyridin-1(2H)-yl]butanamide] showed a PA-7 (MIC) in test [1] greater than 64 µg/mL. In addition, the EC-1 (MIC) in test [2] is greater than 64 µg/mL.
On to `CC(CCn1ccc(-c2ccccc2O)cc1=O)(C(=O)NO)S(C)(=O)=O` (stereo not shown) [Example 213, N-hydroxy-4-[4-(2-hydroxyphenyl)-2-oxopyridin-1(2H)-yl]-2-methyl-2-(methylsulfonyl)butanamide], for which the PA-7 (MIC) in test [1] was greater than 64 µg/mL. Further, in test [2], the EC-1 (MIC) was greater than 64 µg/mL.
As for `CC(CCn1ccc(-c2ccc(F)c(Cl)c2)cc1=O)(C(=O)NO)S(C)(=O)=O` (stereo not shown) [Example 214], in test [1], the PA-7 (MIC) came out at 2 µg/mL. Besides, the EC-1 (MIC) in test [2] was found to be 1 µg/mL.
For `CC(CCn1ccc(-c2cccc3cnccc23)cc1=O)(C(=O)NO)S(C)(=O)=O` (stereo not shown) [Example 215, N-hydroxy-4-(4-isoquinolin-5-yl-2-oxopyridin-1(2H)-yl)-2-methyl-2-(methylsulfonyl)butanamide], in that order: 64 µg/mL and greater than 64 µg/mL.
For `CC(CCn1ccc(-c2cc(Cl)cc(Cl)c2)cc1=O)(C(=O)NO)S(C)(=O)=O` (stereo not shown) [Example 216, 4-[4-(3,5-dichlorophenyl)-2-oxopyridin-1(2H)-yl]-N-hydroxy-2-methyl-2-(methylsulfonyl)butanamide], in that order: 8 µg/mL and 4 µg/mL.
For `CCCCCc1ccc(-c2ccn(CCC(C)(C(=O)NO)S(C)(=O)=O)c(=O)c2)cc1` (stereo not shown) [Example 217, N-hydroxy-2-methyl-2-(methylsulfonyl)-4-[2-oxo-4-(4-pentylphenyl)pyridin-1(2H)-yl]butanamide], in that order: 8 µg/mL and less than 0.06 µg/mL.
Take `CC(CCn1ccc(-c2ccncc2)cc1=O)(C(=O)NO)S(C)(=O)=O` (stereo not shown) [Example 218, N-hydroxy-2-methyl-2-(methylsulfonyl)-4-(2-oxo-4,4′-bipyridin-1(2H)-yl)butanamide]: the PA-7 (MIC) in test [1] is 64 µg/mL. Also, the EC-1 (MIC) in test [2] is greater than 64 µg/mL.
In the same order, the values of `CC(CCn1ccc(-c2cccnc2)cc1=O)(C(=O)NO)S(C)(=O)=O` (stereo not shown) [Example 219, N-hydroxy-2-methyl-2-(methylsulfonyl)-4-(2′-oxo-3,4′-bipyridin-1′(2′H)-yl)butanamide] are greater than 64 µg/mL and greater than 64 µg/mL.
Compound `Cc1cc(-c2ccccc2)cc(=O)n1CCC(C)(C(=O)NO)S(C)(=O)=O` (stereo not shown) [Example 220, N-hydroxy-2-methyl-4-(6-methyl-2-oxo-4-phenylpyridin-1(2H)-yl)-2-(methylsulfonyl)butanamide] yielded a PA-7 (MIC) in test [1] greater than 64 µg/mL. Besides, the EC-1 (MIC) in test [2] is greater than 64 µg/mL.
The compound `CC(CCn1ccc(-c2ccc(OCCCN3CCOCC3)c(Cl)c2)cc1=O)(C(=O)NO)S(C)(=O)=O` (stereo not shown) [Example 221, 4-{4-[3-chloro-4-(3-morpholin-4-ylpropoxy)phenyl]-2-oxopyridin-1(2H)-yl}-N-hydroxy-2-methyl-2-(methylsulfonyl)butanamide] registered a PA-7 (MIC) in test [1] of 8 µg/mL. The EC-1 (MIC) in test [2] amounted to 2 µg/mL.
In the same order, the values of `Cc1cc(-c2ccn(CCC(C)(C(=O)NO)S(C)(=O)=O)c(=O)c2)ccc1OCCCN1CCOCC1` (stereo not shown) [Example 222, N-hydroxy-2-methyl-4-{4-[3-methyl-4-(3-morpholin-4-ylpropoxy)phenyl]-2-oxopyridin-1(2H)-yl}-2-(methylsulfonyl)butanamide] are 8 µg/mL and 2 µg/mL.
In the same order, the values of `CC(CCn1ccc(-c2ccc(OCCCN3CCOCC3)c(F)c2)cc1=O)(C(=O)NO)S(C)(=O)=O` (stereo not shown) [Example 223, 4-{4-[3-fluoro-4-(3-morpholin-4-ylpropoxy)phenyl]-2-oxopyridin-1(2H)-yl}-N-hydroxy-2-methyl-2-(methylsulfonyl)butanamide] are 8 µg/mL and 4 µg/mL.
For `CC(O)Cc1ccc(-c2ccn(CCC(C)(C(=O)NO)S(C)(=O)=O)c(=O)c2)cc1` (stereo not shown) [Example 224, N-hydroxy-4-{4-[4-(2-hydroxypropyl)phenyl]-2-oxopyridin-1(2H)-yl}-2-methyl-2-(methylsulfonyl)butanamide], in that order: 8 µg/mL and 32 µg/mL.
As to `CC(CCn1ccc(-c2ccc(OCCCN3CCOCC3)cc2Cl)cc1=O)(C(=O)NO)S(C)(=O)=O` (stereo not shown) [Example 225, 4-{4-[2-chloro-4-(3-morpholin-4-ylpropoxy)phenyl]-2-oxopyridin-1(2H)-yl}-N-hydroxy-2-methyl-2-(methylsulfonyl)butanamide], the PA-7 (MIC) in test [1] amounted to 16 µg/mL. Further, the EC-1 (MIC) in test [2] is 8 µg/mL.
In the same order, the values of `CC(CCn1ccc(-c2ccc(OCCCN3CCOCC3)cc2F)cc1=O)(C(=O)NO)S(C)(=O)=O` (stereo not shown) [Example 226, 4-{4-[2-fluoro-4-(3-morpholin-4-ylpropoxy)phenyl]-2-oxopyridin-1(2H)-yl}-N-hydroxy-2-methyl-2-(methylsulfonyl)butanamide] are 8 µg/mL and 2 µg/mL.
In the same order, the values of `COc1cc(-c2ccn(CCC(C)(C(=O)NO)S(C)(=O)=O)c(=O)c2)ccc1OCCCN1CCOCC1` (stereo not shown) [Example 227, N-hydroxy-4-{4-[3-methoxy-4-(3-morpholin-4-ylpropoxy)phenyl]-2-oxopyridin-1(2H)-yl}-2-methyl-2-(methylsulfonyl)butanamide] are 64 µg/mL and 64 µg/mL.
In the same order, the values of `Cc1cc(OCCCN2CCOCC2)ccc1-c1ccn(CCC(C)(C(=O)NO)S(C)(=O)=O)c(=O)c1` (stereo not shown) [Example 228, N-hydroxy-2-methyl-4-{4-[2-methyl-4-(3-morpholin-4-ylpropoxy)phenyl]-2-oxopyridin-1(2H)-yl}-2-(methylsulfonyl)butanamide] are 16 µg/mL and 8 µg/mL.
For the compound `CC(CCn1ccc(-c2ccc(OCCCCCO)cc2)cc1=O)(C(=O)NO)S(C)(=O)=O` (stereo not shown) [Example 229, N-hydroxy-4-[4-{4-[(5-hydroxypentyl)oxy]phenyl}-2-oxopyridin-1(2H)-yl]-2-methyl-2-(methylsulfonyl)butanamide], the PA-7 (MIC) in test [1] amounted to 2 µg/mL. The compound also displayed an EC-1 (MIC) in test [2] of 0.25 µg/mL.
In the same order, the values of `CC(CCn1ccc(-c2ccc(S(N)(=O)=O)cc2)cc1=O)(C(=O)NO)S(C)(=O)=O` (stereo not shown) [Example 230, 4-{4-[4-(aminosulfonyl)phenyl]-2-oxopyridin-1(2H)-yl}-N-hydroxy-2-methyl-2-(methylsulfonyl)butanamide] are greater than 64 µg/mL and 64 µg/mL.
In the same order, the values of `CC(O)Cc1cccc(-c2ccn(CCC(C)(C(=O)NO)S(C)(=O)=O)c(=O)c2)c1` (stereo not shown) [Example 231, N-hydroxy-4-{4-[3-(2-hydroxypropyl)phenyl]-2-oxopyridin-1(2H)-yl}-2-methyl-2-(methylsulfonyl)butanamide] are greater than 64 µg/mL and greater than 64 µg/mL.
For `CC(CCn1ccc(-c2ccc(OCCO)cc2Cl)cc1=O)(C(=O)NO)S(C)(=O)=O` (stereo not shown) [Example 232, 4-{4-[2-chloro-4-(2-hydroxyethoxy)phenyl]-2-oxopyridin-1(2H)-yl}-N-hydroxy-2-methyl-2-(methylsulfonyl)butanamide], in that order: 16 µg/mL and 16 µg/mL.
The compound `Cc1cc(-c2ccn(CCC(C)(C(=O)NO)S(C)(=O)=O)c(=O)c2)c(C)cc1OCCO` (stereo not shown) [Example 233, N-hydroxy-4-{4-[4-(2-hydroxyethoxy)-2,5-dimethylphenyl]-2-oxopyridin-1(2H)-yl}-2-methyl-2-(methylsulfonyl)butanamide] gave a PA-7 (MIC) in test [1] greater than 64 µg/mL. For the same compound, in test [2], the EC-1 (MIC) is greater than 64 µg/mL.
`CC(CCn1ccc(-c2ccc(OCCO)c(Cl)c2Cl)cc1=O)(C(=O)NO)S(C)(=O)=O` (stereo not shown) [Example 234, 4-{4-[2,3-dichloro-4-(2-hydroxyethoxy)phenyl]-2-oxopyridin-1(2H)-yl}-N-hydroxy-2-methyl-2-(methylsulfonyl)butanamide]: the PA-7 (MIC) in test [1] was 32 µg/mL. Also, the EC-1 (MIC) in test [2] was 64 µg/mL.
`Cc1cc(-c2ccn(CCC(C)(C(=O)NO)S(C)(=O)=O)c(=O)c2)ccc1OCCO` (stereo not shown) [Example 235, N-hydroxy-4-{4-[4-(2-hydroxyethoxy)-3-methylphenyl]-2-oxopyridin-1(2H)-yl}-2-methyl-2-(methylsulfonyl)butanamide] came in with a PA-7 (MIC) in test [1] of 8 µg/mL. The same compound showed an EC-1 (MIC) in test [2] of 8 µg/mL.
